This is an account of results in US20230293629A1, “METHODS FOR ATTENUATING RELEASE OF INFLAMMATORY MEDIATORS AND PEPTIDES USEFUL THEREIN” (BIOMARCK PHARMACEUTICALS LTD., priority 2006, published 2023).

The test concerns isolated canine neutrophils. The test can be described thus: MPO secretion from isolated canine neutrophils stimulated with PMA + 8-Br-cGMP (FIG. 6, 10, 11). The test is classed as cell-based. To be noted: for MPO secretion: FIG. 6, 100 nM PMA and 10 μM 8-Br-cGMP. From the text: The invention also relates to a new method for blocking any cellular exocytotic secretory process, especially those releasing inflammatory mediators from granules contained within inflammatory cells, whose stimulatory pathways involve the protein kinase C (PKC) substrate MARCKS protein and release of contents from membrane-bound vesicles. Specifically, the inventors have shown that stimulated release of the inflammatory mediator myloperoxidase from human (FIG. 6) or canine (FIG. 7) neutrophils can be blocked in a concentration-dependent manner by the MANS peptide. […] 10 or 100 μM of a control peptide (RNS) has no effect on MPO secretion. In FIG. 7, isolated neutrophils were stimulated to secrete myloperoxidase (MPO) with 100 nM PMA and 10 μM 8-Br-cGMP. […] 10 or 100 μM of a control peptide (RNS) has no effect on MPO secretion. Thus, the peptide may be used therapeutically to block the release of mediators of inflammation secreted from infiltrating inflammatory cells in any tissues. Many of these released mediators are responsible for the extensive tissue damage observed in a variety of chronic inflammatory diseases (i.e., respiratory diseases such as asthma, chronic bronchitis and COPD, inflammatory bowel diseases including ulcerative colitis and Crohn's disease, autoimmune diseases, skin diseases such as rosacea, eczema; and severe acne, arthritic and pain syndromes such as rheumatoid arthritis and fibromyalgia). This invention may be useful for treating diseases such as arthritis, chronic bronchitis, COPD and cystic fibrosis. This invention is accordingly useful for the treatment in both human and animal diseases, especially those affecting equines, canines, felines, and other household pets.
FIGS. 8-12 show MPO secretion for both humans and canines. In all of these experiments, isolated neutrophils were stimulated with LPS at a concentration of 1×10^−6 M for 10 minutes at 37° C. prior to adding the stimuli as indicated in the figures. The LPS primes the cells so they can respond to a secretagogue.
Isolation of PMNs from canine blood—The steps involved in isolating PMN include collecting 10 ml ACD anticoagulated blood. Then layering 5 ml on 3.5 ml PMN isolation media while ensuring that the PMN isolation media (IM) was at room temperature (RI). Next, the blood was centrifuged at room temperature for 30′, 550×g at 1700 RPMs. The low lower white band was transferred into 15 ml conical centrifuge tube (CCFT). Next, 2V HESS with 10% fetal bovine serum […] was added and centrifuged at room temperature for 10′, 400×g at 1400 RPMs. The pellet was then resuspended in 5 ml 1-1ESS with PBS. The cell suspension was added to 50 ml CCFT containing 20 ml of ice cold 0.88% NH4Cl and inverted two to three times. The resulting product was centrifuged for 10′, 800×g at 2000 RPMs, then aspirated and resuspended in 5 ml HBSS with FBS. The prep was examined by counting and cytospin and preferably for whole blood, the cell number should be between 10^9-10^11 cells and for PMNs, cell number should be between 2-4×10^7 cells. See generally, Wang et al., J. Immunol., “Neutrophil-induced changes in the biomechanical properties of endothelial cells: roles of ICAM-1 and reactive oxygen species,” 6487-94 (2000).
MPO Colorimetric Enzyme Assay—Samples were assayed for MPO activity in 96 well round bottom microtiter plates using a sandwich ELISA kit (R & D Systems, Minneapolis, Minn.). […]

Structures are written as SMILES. Where a SMILES comes first, the peptide text is derived from it. The star is where a group is joined. Myristoyl = CCCCCCCCCCCCCC(=O)*

As for `CCCCCCCCCCCCCC(=O)NCC(=O)N[C@@H](C)C(=O)N[C@@H](CCC(N)=O)C(=O)N[C@@H](Cc1ccccc1)C(=O)N[C@@H](CO)C(=O)N[C@@H](CCCCN)C(=O)N[C@H](C(=O)N[C@@H](C)C(=O)N[C@@H](C)C(=O)N[C@@H](CCCCN)C(=O)NCC(=O)N[C@@H](CCC(=O)O)C(=O)N[C@@H](C)C(=O)N[C@@H](C)C(=O)N[C@@H](C)C(=O)N[C@@H](CCC(=O)O)C(=O)N[C@@H](CCCNC(=N)N)C(=O)N1CCC[C@H]1C(=O)NCC(=O)N[C@@H](CCC(=O)O)C(=O)N[C@@H](C)C(=O)N[C@@H](C)C(=O)N[C@H](C(=O)N[C@@H](C)C(=O)O)C(C)C)[C@@H](C)O` [MANS] (Myristoyl-GAQFSKTAAKGEAAAERPGEAAVA-OH; C-terminus assumed), the MPO secretion entry (10 μM peptide) is recorded as “slight decrease” and the MPO secretion result (100 (unit not given) peptide) is recorded as “decreased secretion of MPO to control levels”.
For the molecule `CCCCCCCCCCCCCC(=O)O[C@@H]1[C@@H](C)[C@@]2(O)[C@@H](C=C(CO)C[C@]3(O)C(=O)C(C)=C[C@@H]23)[C@@H]2C(C)(C)[C@]12OC(C)=O` [PMA, phorbol 12-myristate 13-acetate], the “MPO secretion from LPS-stimulated canine neutrophils” value (FIG. 10, PMA alone, enhanced concentration-dependently by co-stimulation with 8-Br-cGMP) is reported as “small increase”.
On to `CCCCCCCCCCCCCC(=O)NCC(=O)N[C@H](C(=O)N[C@@H](C)C(=O)N1CCC[C@H]1C(=O)N[C@@H](C)C(=O)N[C@@H](C)C(=O)N[C@@H](CCC(=O)O)C(=O)NCC(=O)N[C@@H](C)C(=O)NCC(=O)N[C@@H](C)C(=O)N[C@@H](CCC(=O)O)C(=O)N[C@H](C(=O)N[C@@H](CCCCN)C(=O)N[C@@H](CCCNC(=N)N)C(=O)N[C@@H](C)C(=O)N[C@@H](CO)C(=O)N[C@@H](C)C(=O)N[C@@H](CCC(=O)O)C(=O)N[C@@H](C)C(=O)N[C@@H](CCCCN)C(=O)N[C@@H](CCC(N)=O)C(=O)N[C@@H](C)C(=O)N[C@@H](Cc1ccccc1)C(=O)O)C(C)C)[C@@H](C)O` [RNS, reference compound] (Myristoyl-GTAPAAEGAGAEVKRASAEAKQAF-OH; C-terminus assumed), for which the MPO secretion result (10 or 100 μM peptide) was “no effect”.
